Test results from article PMC4890880 (ACS infectious diseases, 2016).
Like-named read-outs stand apart in the source and are kept apart here.

Legend:
[1] = test system: Plasmodium berghei (Pb-Luc) exoerythrocytic-stage parasites; conditions: for IC50: read-out: PbLuc_IC50
HepG2-A16-CD81EGFP cells = conditions: for IC50: read-out: Tox_IC50, HepG2 cytotoxicity
[2] = first series of dose-response columns, fraction of control
[3] = first series, fraction of control
[4] = sheet 2nd round, Broad compounds, dose response
[5] = second series of dose-response columns, fraction of control
[6] = second series, fraction of control
[7] = sheet 2nd round, maximal inhibition in dose response
[8] = first series of columns, fraction of control
[9] = second series of columns (replicate), fraction of control
[10] = 2nd round, maximal inhibition in dose series

## C[C@@H]1CN([C@H](C)CO)C(=O)c2cc(N(C)C)ccc2O[C@@H](C)CCCCO[C@@H]1CN(C)S(=O)(=O)c1ccc(F)cc1 [BRD-K12341671-001-01-5]
[1]; [2]
  normalized signal at concentration 10: 0.50
[1]; [3]
  normalized signal at concentration 0.000508053: 0.77
  normalized signal at concentration 0.00152416: 1.03
  normalized signal at concentration 0.00457247: 1.06
  normalized signal at concentration 0.0137174: 0.89
  normalized signal at concentration 0.0411523: 0.99
  normalized signal at concentration 0.123457: 1.04
  normalized signal at concentration 0.37037: 0.93
  normalized signal at concentration 1.11111: 0.88
  normalized signal at concentration 3.33333: 0.70
[1]; [4]
  IC50: > 10 µM
[1]; [5]
  normalized signal at concentration 10: 0.50
[1]; [6]
  normalized signal at concentration 0.000508053: 0.88
  normalized signal at concentration 0.00152416: 1.15
  normalized signal at concentration 0.00457247: 0.85
  normalized signal at concentration 0.0137174: 0.84
  normalized signal at concentration 0.0411523: 0.98
  normalized signal at concentration 0.123457: 0.98
  normalized signal at concentration 0.37037: 0.92
  normalized signal at concentration 1.11111: 0.85
  normalized signal at concentration 3.33333: 0.80
[1]; [7]
  PbLuc_max_inhibition (%): 50%
HepG2-A16-CD81EGFP cells; sheet 2nd round
  IC50: > 10 µM
HepG2-A16-CD81EGFP cells; [7]
  Tox_max_inhibition (%): 5%

## C[C@@H]1CN([C@@H](C)CO)C(=O)c2cccc(NC(=O)c3ccc(-c4nccs4)cc3)c2O[C@H]1CN(C)C(=O)Nc1ccc(C(F)(F)F)cc1 [BRD-K97485207-001-01-1]
[1]; [2]
  normalized signal at concentration 10: 0.53
[1]; [3]
  normalized signal at concentration 0.000508053: 0.80
  normalized signal at concentration 0.00152416: 0.94
  normalized signal at concentration 0.00457247: 0.89
  normalized signal at concentration 0.0137174: 0.64
  normalized signal at concentration 0.0411523: 0.84
  normalized signal at concentration 0.123457: 1.04
  normalized signal at concentration 0.37037: 0.85
  normalized signal at concentration 1.11111: 0.73
  normalized signal at concentration 3.33333: 0.73
[1]; [4]
  IC50: > 10 µM
[1]; [5]
  normalized signal at concentration 10: 0.66
[1]; [6]
  normalized signal at concentration 0.000508053: 0.85
  normalized signal at concentration 0.00152416: 0.90
  normalized signal at concentration 0.00457247: 0.80
  normalized signal at concentration 0.0137174: 0.89
  normalized signal at concentration 0.0411523: 0.77
  normalized signal at concentration 0.123457: 0.77
  normalized signal at concentration 0.37037: 0.95
  normalized signal at concentration 1.11111: 0.95
  normalized signal at concentration 3.33333: 0.97
[1]; [7]
  PbLuc_max_inhibition (%): 47%
HepG2-A16-CD81EGFP cells; sheet 2nd round
  IC50: > 10 µM
HepG2-A16-CD81EGFP cells; [7]
  Tox_max_inhibition (%): 6.47%

## O=S(=O)(c1cccs1)N1CCCCN2[C@H](CO)[C@H](c3ccc(/C=C/c4ccccc4)cc3)[C@H]2C1 [BRD-K20449903-001-01-6]
[1]; [2]
  normalized signal at concentration 10: 0.52
[1]; [3]
  normalized signal at concentration 0.000508053: 1.07
  normalized signal at concentration 0.00152416: 1.07
  normalized signal at concentration 0.00457247: 0.84
  normalized signal at concentration 0.0137174: 1.09
  normalized signal at concentration 0.0411523: 0.93
  normalized signal at concentration 0.123457: 1.01
  normalized signal at concentration 0.37037: 1.01
  normalized signal at concentration 1.11111: 1.05
  normalized signal at concentration 3.33333: 1.18
[1]; [4]
  IC50: > 10 µM
[1]; [5]
  normalized signal at concentration 10: 0.70
[1]; [6]
  normalized signal at concentration 0.000508053: 0.94
  normalized signal at concentration 0.00152416: 1.05
  normalized signal at concentration 0.00457247: 0.96
  normalized signal at concentration 0.0137174: 1.06
  normalized signal at concentration 0.0411523: 1.19
  normalized signal at concentration 0.123457: 1.23
  normalized signal at concentration 0.37037: 0.91
  normalized signal at concentration 1.11111: 1.04
  normalized signal at concentration 3.33333: 1.04
[1]; [7]
  PbLuc_max_inhibition (%): 48%
HepG2-A16-CD81EGFP cells; sheet 2nd round
  IC50: > 10 µM
HepG2-A16-CD81EGFP cells; [7]
  Tox_max_inhibition (%): 9%

## COc1ccc(S(=O)(=O)N(C)C[C@H]2Oc3ccc(NC(=O)Cc4cn(C)c5ccccc45)cc3C(=O)N([C@H](C)CO)C[C@@H]2C)cc1 [BRD-K30240821-001-02-4]
[1]; [2]
  normalized signal at concentration 10: 0.7772
[1]; [3]
  normalized signal at concentration 0.000508053: 0.8923
  normalized signal at concentration 0.00152416: 0.848
  normalized signal at concentration 0.00457247: 0.7066
  normalized signal at concentration 0.0137174: 0.8032
  normalized signal at concentration 0.0411523: 0.8311
  normalized signal at concentration 0.123457: 1.098
  normalized signal at concentration 0.37037: 0.9739
  normalized signal at concentration 1.11111: 0.9836
  normalized signal at concentration 3.33333: 0.9041
[1]; [4]
  IC50: > 10 µM
[1]; [5]
  normalized signal at concentration 10: 0.9286
[1]; [6]
  normalized signal at concentration 0.000508053: 0.993
  normalized signal at concentration 0.00152416: 0.893
  normalized signal at concentration 0.00457247: 0.9938
  normalized signal at concentration 0.0137174: 0.8741
  normalized signal at concentration 0.0411523: 1.056
  normalized signal at concentration 0.123457: 0.8643
  normalized signal at concentration 0.37037: 1.021
  normalized signal at concentration 1.11111: 1.07
  normalized signal at concentration 3.33333: 1.082
[1]; [7]
  PbLuc_max_inhibition (%): 29%
HepG2-A16-CD81EGFP cells; sheet 2nd round
  IC50: > 10 µM
HepG2-A16-CD81EGFP cells; [7]
  Tox_max_inhibition (%): 8.48%

## C[C@@H]1CCCCO[C@H](CN(C)S(=O)(=O)c2ccc(F)cc2)[C@@H](C)CN([C@@H](C)CO)C(=O)c2cc(N(C)C)ccc2O1 [BRD-K27035180-001-01-0]
[1]; [8]
  normalized signal at concentration 0.000508053: 0.9801
  normalized signal at concentration 0.00152416: 1.117
  normalized signal at concentration 0.00457247: 0.8737
  normalized signal at concentration 0.0137174: 0.9285
  normalized signal at concentration 0.0411523: 1.068
  normalized signal at concentration 0.123457: 0.9867
  normalized signal at concentration 0.37037: 0.8491
  normalized signal at concentration 1.11111: 1.048
  normalized signal at concentration 3.33333: 0.9262
  normalized signal at concentration 10: 0.8261
[1]; sheet 2nd round, Pb-Luc exoerythrocytic stage, 10-point dose response, top concentration 10
  IC50: > 10 µM
[1]; [9]
  normalized signal at concentration 0.000508053: 0.9613
  normalized signal at concentration 0.00152416: 1.064
  normalized signal at concentration 0.00457247: 0.9935
  normalized signal at concentration 0.0137174: 0.8637
  normalized signal at concentration 0.0411523: 1.045
  normalized signal at concentration 0.123457: 0.8684
  normalized signal at concentration 0.37037: 1.143
  normalized signal at concentration 1.11111: 0.8369
  normalized signal at concentration 3.33333: 1.121
  normalized signal at concentration 10: 0.5603
[1]; [7]
  PbLuc_max_inhibition (%): 44%
HepG2-A16-CD81EGFP cells; sheet 2nd round
  IC50: > 10 µM
HepG2-A16-CD81EGFP cells; [7]
  Tox_max_inhibition (%): 10%

## C[C@@H]1CN([C@H](C)CO)C(=O)c2ccccc2-c2ccccc2CO[C@H]1CN(C)C(=O)[C@H](Cc1ccccc1)N(C)C [BRD-K75961033-001-01-7]
[1]; [10]
  PbLuc_max_inhibition (%): 45%
[1]; concentration 0.000508053, first replicate series, fraction of control
  normalized signal at 0.000508053 (first series): 1.06
[1]; concentration 0.000508053, second replicate series, fraction of control
  normalized signal at 0.000508053 (second series): 0.8091
[1]; concentration 0.00152416, first replicate series, fraction of control
  normalized signal at 0.00152416 (first series): 0.9571
[1]; concentration 0.00152416, second replicate series, fraction of control
  normalized signal at 0.00152416 (second series): 0.6896
[1]; concentration 0.00457247, first replicate series, fraction of control
  normalized signal at 0.00457247 (first series): 0.9675
[1]; concentration 0.00457247, second replicate series, fraction of control
  normalized signal at 0.00457247 (second series): 0.699
[1]; concentration 0.0137174, first replicate series, fraction of control
  normalized signal at 0.0137174 (first series): 1.117
[1]; concentration 0.0137174, second replicate series, fraction of control
  normalized signal at 0.0137174 (second series): 0.795
[1]; concentration 0.0411523, first replicate series, fraction of control
  normalized signal at 0.0411523 (first series): 0.9735
[1]; concentration 0.0411523, second replicate series, fraction of control
  normalized signal at 0.0411523 (second series): 0.8267
[1]; concentration 0.123457, first replicate series, fraction of control
  normalized signal at 0.123457 (first series): 0.9249
[1]; concentration 0.123457, second replicate series, fraction of control
  normalized signal at 0.123457 (second series): 0.6648
[1]; concentration 0.37037, first replicate series, fraction of control
  normalized signal at 0.37037 (first series): 0.9974
[1]; concentration 0.37037, second replicate series, fraction of control
  normalized signal at 0.37037 (second series): 0.9501
[1]; concentration 1.11111, first replicate series, fraction of control
  normalized signal at 1.11111 (first series): 1.014
[1]; concentration 1.11111, second replicate series, fraction of control
  normalized signal at 1.11111 (second series): 0.8135
[1]; concentration 3.33333, first replicate series, fraction of control
  normalized signal at 3.33333 (first series): 0.9327
[1]; concentration 3.33333, second replicate series, fraction of control
  normalized signal at 3.33333 (second series): 0.5506
[1]; concentration 10, first replicate series, fraction of control
  normalized signal at 10 (first series): 0.7489
[1]; concentration 10, second replicate series, fraction of control
  normalized signal at 10 (second series): 0.6892
[1]; 2nd round, Broad DOS compounds, unit not printed (dose series head 10 to 0.000508053)
  IC50: > 10 µM
HepG2-A16-CD81EGFP cells; [10]
  Tox_max_inhibition (%): 5.71%
HepG2-A16-CD81EGFP cells; 2nd round, unit inferred
  IC50: > 10 µM
